Results reported in ChEMBL document CHEMBL1140078 (J Med Chem, 2008).

Key:
[1] = molecular target: Phosphatidylinositol 4,5-bisphosphate 3-kinase catalytic subunit alpha isoform (Homo sapiens, UniProt P42336)
Description: Inhibition of human recombinant PI3K p110alpha expressed in Sf9 cells coexpressing p85alpha by radiometric scintillation proximity assay

in vitro [2] = settings: CD1, mouse, liver microsomes
Description: Metabolic stability in CD1 mouse liver microsomes at 10 uM after 30 mins

in vitro [3] = settings: human, liver microsomes
Description: Metabolic stability in human liver microsomes at 10 uM after 30 mins

in vivo [4] = settings: rat, po, 10 mg/kg
[5] = Aqueous solubility at pH 7.4 by turbidimetric assay; format: physicochemical
in vivo [6] = settings: CD1, mouse, po, 10 mg/kg

Chain of Phosphatidylinositol 4,5-bisphosphate 3-kinase catalytic subunit alpha isoform (P42336 whole entry, canonical isoform): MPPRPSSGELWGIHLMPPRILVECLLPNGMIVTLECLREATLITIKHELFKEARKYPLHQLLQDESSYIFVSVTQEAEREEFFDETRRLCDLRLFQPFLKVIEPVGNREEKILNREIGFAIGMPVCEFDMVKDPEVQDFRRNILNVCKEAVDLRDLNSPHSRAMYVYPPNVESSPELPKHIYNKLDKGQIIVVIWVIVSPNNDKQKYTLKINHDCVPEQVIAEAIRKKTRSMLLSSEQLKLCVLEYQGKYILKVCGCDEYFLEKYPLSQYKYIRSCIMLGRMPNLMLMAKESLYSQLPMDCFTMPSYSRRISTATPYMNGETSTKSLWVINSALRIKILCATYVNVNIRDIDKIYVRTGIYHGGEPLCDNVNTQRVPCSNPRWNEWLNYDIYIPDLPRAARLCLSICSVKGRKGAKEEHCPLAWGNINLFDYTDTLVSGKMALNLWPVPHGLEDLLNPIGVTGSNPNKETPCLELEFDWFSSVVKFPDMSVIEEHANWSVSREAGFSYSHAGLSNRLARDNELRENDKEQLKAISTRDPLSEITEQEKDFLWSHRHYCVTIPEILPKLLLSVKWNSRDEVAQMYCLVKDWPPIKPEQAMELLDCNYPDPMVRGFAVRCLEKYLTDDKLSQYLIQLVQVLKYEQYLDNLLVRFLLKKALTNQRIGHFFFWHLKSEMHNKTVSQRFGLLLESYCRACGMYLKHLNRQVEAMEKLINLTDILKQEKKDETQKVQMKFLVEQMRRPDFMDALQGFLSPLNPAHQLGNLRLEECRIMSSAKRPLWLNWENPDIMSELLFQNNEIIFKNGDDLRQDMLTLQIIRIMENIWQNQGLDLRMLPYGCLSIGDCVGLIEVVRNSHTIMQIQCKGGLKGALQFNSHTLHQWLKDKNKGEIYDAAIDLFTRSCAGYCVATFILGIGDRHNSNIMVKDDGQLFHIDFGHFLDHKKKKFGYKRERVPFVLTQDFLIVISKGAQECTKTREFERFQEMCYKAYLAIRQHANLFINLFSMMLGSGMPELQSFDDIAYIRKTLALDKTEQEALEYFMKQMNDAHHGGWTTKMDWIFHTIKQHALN

Compound | IC50 [1] | remaining at 0.5 h, 10 µM (in vitro [2]) | remaining at 0.5 h, 10 µM (in vitro [3]) | bioavailability (in vivo [4]) | solubility kinetic [5] | bioavailability (in vivo [6])
Cc1csc2c(N3CCOCC3)nc(-c3cccc(O)c3)nc12 | 21 nM | 5% | 51% |  |  | 
CN1CCN(Cc2cc3nc(-c4cccc(O)c4)nc(N4CCOCC4)c3s2)CC1 |  | 85% | 85% | 2% | > 100 µM | 10%
c1cc2nc(-c3ccc4cn[nH]c4c3)nc(N3CCOCC3)c2s1 | 2450 nM |  |  |  |  | 
CN1CCN(Cc2cc3nc(-c4cccc5[nH]ncc45)nc(N4CCOCC4)c3s2)CC1 |  | 81% | 81% | 37% |  | 31%
COCCN(C)Cc1cc2nc(-c3cccc(O)c3)nc(N3CCOCC3)c2s1 |  | 13% | 57% |  | > 100 µM | 
OCCN1CCN(Cc2cc3nc(-c4cccc(O)c4)nc(N4CCOCC4)c3s2)CC1 |  | 90% | 90% | 0% | > 100 µM | 7%
CN(C)Cc1cc2nc(-c3cccc(O)c3)nc(N3CCOCC3)c2s1 |  | 32% | 74% |  |  | 11%
Oc1cccc(-c2nc(N3CCOCC3)c3sccc3n2)c1 |  | 25% | 32% |  |  | 
Cc1cc2nc(-c3cccc(O)c3)nc(N3CCOCC3)c2s1 |  | 64% |  |  |  | 
